Measured values as given in PMC8218635, “Structural Insights into the Mechanisms of Action of Functionally Distinct Classes of Chikungunya Virus Nonstructural Protein 1 Inhibitors” (Antimicrobial Agents and Chemotherapy, 2021).
Like-named read-outs stand apart in the source and are kept apart here.

Legend:
CHIKV = test: microbe, parasite or virus in culture; format: cell-based
SFV = test: microbe, parasite or virus in culture; format: cell-based; settings: multicycle CPE reduction assay, Vero E6 cells, NA = not active
rCHIKV P34S = format: cell-based, Chikungunya virus; settings: for Fold resistance, rCHIKV P34S: (EC50 for the variant)/(EC50 for the wt); for EC50: CPE reduction assay, Vero E6 cells; for Sensitivity or resistance of CHIKV nsP1-P34S to the compound: at the concentrations tested, Fig. 2
rCHIKV G230R + K299E = format: cell-based, Chikungunya virus; settings: for Fold resistance, rCHIKV G230R + K299E: (EC50 for the variant)/(EC50 for the wt); for EC50: CPE reduction assay, Vero E6 cells; for Sensitivity or resistance of CHIKV nsP1-G230R+K299E to the compound: Fig. 2
rCHIKV S454G + W456R = format: cell-based, Chikungunya virus; settings: for Fold resistance, rCHIKV S454G + W456R: (EC50 for the variant)/(EC50 for the wt); for EC50: CPE reduction assay, Vero E6 cells; for Sensitivity or resistance of CHIKV nsP1-S454G+W456R to the compound: at the doses tested, Fig. 2
SINV = system: SINV; set-up: method as in PMID 31964798; settings: cited from earlier work
in vitro = settings: African green monkey
wt SFV nsP1 [1] = target: T1, wt SFV nsP1 (Semliki forest virus, UniProt P08411); format: biochemical; settings: for Inhibition of formation of the covalent [32P]m7GMP-nsP1 complex: wt SFV nsP1, 100 μM SAM, inhibitor 50 μM to 1 mM, Fig. 3A
T1 sequence (P08411 1-537 limits assumed): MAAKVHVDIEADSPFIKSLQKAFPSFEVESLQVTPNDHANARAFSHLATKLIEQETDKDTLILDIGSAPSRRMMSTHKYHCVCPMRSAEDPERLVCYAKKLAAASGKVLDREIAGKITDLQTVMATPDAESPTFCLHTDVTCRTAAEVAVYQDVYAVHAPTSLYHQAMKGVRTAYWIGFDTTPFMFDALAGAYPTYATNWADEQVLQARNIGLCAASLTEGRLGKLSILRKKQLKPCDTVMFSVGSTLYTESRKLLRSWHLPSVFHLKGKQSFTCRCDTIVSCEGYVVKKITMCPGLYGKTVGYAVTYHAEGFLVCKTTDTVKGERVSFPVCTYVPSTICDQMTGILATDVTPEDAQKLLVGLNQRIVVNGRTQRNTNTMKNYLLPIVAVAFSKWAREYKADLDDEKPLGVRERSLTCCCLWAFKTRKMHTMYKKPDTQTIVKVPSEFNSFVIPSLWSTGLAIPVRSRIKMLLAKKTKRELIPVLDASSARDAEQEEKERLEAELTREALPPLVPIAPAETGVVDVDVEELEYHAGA

VEEV nsP1 = settings: cited from earlier work
wt CHIKV nsP1 = wt CHIKV nsP1 (Chikungunya virus, UniProt Q8JUX6); format: biochemical; settings: wt CHIKV nsP1, 10 μM SAM; for Inhibition of formation of the covalent [32P]m7GMP-nsP1 intermediate: inhibitor 0.5 to 32 μM, Fig. 3C
wt SFV nsP1 [2] = target: T1, wt SFV nsP1; set-up: method as in PMID 31964798; settings: cited from earlier work
CHIKV nsP1 = settings: enzymatic assays measuring either MTase or GTase activity; cited from earlier work
[3] = Chikungunya virus, Vero C1008, 96 h, read-out: EC50, concentration that reduces virus-induced CPE by 50%, CHIKV, multicycle CPE reduction assay, Vero E6 cells, 96 h
[4] = Chikungunya virus, Vero C1008, read-out: EC50 for wt CHIKV, Table 2, wt CHIKV, CPE reduction assay, Vero E6 cells

## CNc1ncnc2c1ncn2C1C(O)C(O)C(CCO)C1F (stereo not drawn) [FMA, 6′-β-fluoro-N^6-methyladenosine]
CHIKV; source of the data not stated
  Activity in CHIKV CPE reduction assays: inactive

## 6′-β-Fluoro-homoaristeromycin [FHA]
SFV; 32 h
  EC50: 3.9 ± 3.5 µM
rCHIKV P34S
  Fold resistance, rCHIKV P34S: 2.3
  EC50: 1.6 ± 0.2 µM
rCHIKV G230R + K299E
  Fold resistance, rCHIKV G230R + K299E: 14.3
  EC50: > 10 µM
  Sensitivity or resistance of CHIKV nsP1-G230R+K299E to the compound: resistant
rCHIKV S454G + W456R
  Fold resistance, rCHIKV S454G + W456R: 1
SINV
  Activity against SINV: inactive
CHIKV; CHIKV, multicycle CPE reduction assay, Vero E6 cells, 96 h, read-out: EC50, concentration that reduces virus-induced CPE by 50%
  EC50: 0.7 ± 0.08 µM
CHIKV; Table 2, wt CHIKV, CPE reduction assay, Vero E6 cells, read-out: EC50 for wt CHIKV
  EC50: 0.7 ± 0.08 µM
Vero E6 cells
  CC50: > 250 µM

## CCNc1nc(C)cc(N2CCN(C(=O)c3ccc(C)cc3)CC2)n1 [CHVB-066]
In vitro
  CC50: 25 µM
rCHIKV P34S
  Fold resistance, rCHIKV P34S: 20.8
  EC50: > 12.5 µM
  Sensitivity or resistance of CHIKV nsP1-P34S to the compound: completely resistant
Wt SFV nsP1 [1]
  Inhibition of formation of the covalent [32P]m7GMP-nsP1 complex: completely blocked
VEEV nsP1
  Inhibition of GTase activity of VEEV nsP1: inhibit the GTase activity
rCHIKV G230R + K299E
  Fold resistance, rCHIKV G230R + K299E: <1
  EC50: 0.3 ± 0.04 µM
Wt CHIKV nsP1
  Inhibition of formation of the covalent [32P]m7GMP-nsP1 intermediate: in a dose-dependent manner
rCHIKV S454G + W456R
  Fold resistance, rCHIKV S454G + W456R: 20.8
  EC50: > 12.5 µM
CHIKV; [3]
  EC50: < 1 µM
CHIKV; [4]
  EC50: 0.6 ± 0.1 µM

## Nc1ncnc2c1ncn2C1C(F)=C(CCO)C(O)C1O (stereo not drawn) [FHNA, 6′-fluoro-homoneplanocin A]
In vitro
  CC50: > 250 µM
SFV; Semliki Forest virus, Vero C1008, 32 h
  EC50: 3.9 to 5.2 µM
SFV; 32 h
  EC50: 5.2 ± 3.2 µM
rCHIKV P34S
  Fold resistance, rCHIKV P34S: 2.4
  EC50: 2.8 ± 0.3 µM
rCHIKV G230R + K299E
  Fold resistance, rCHIKV G230R + K299E: 8.6
  EC50: > 10 µM
  Sensitivity or resistance of CHIKV nsP1-G230R+K299E to the compound: resistant
Wt CHIKV nsP1; with or without DTT, 12.5 to 500 μM compound, Fig. 3E
  Reduction of the [32P]m7GMP-nsP1 signal: no reduction in the signal
Wt SFV nsP1 [2]; modified SFV nsP1 assay lacking DTT, not shown
  Inhibition of formation of the covalent [32P]m7GMP-nsP1 intermediate: to a lesser extent
rCHIKV S454G + W456R
  Fold resistance, rCHIKV S454G + W456R: 1
  EC50: 1.2 ± 0.1 µM
SINV
  Activity against SINV: inactive
CHIKV; [3]
  EC50: 1.2 ± 0.03 µM
CHIKV; [4]
  EC50: 1.2 ± 0.03 µM
Vero E6 cells; African green monkey
  CC50: > 250 µM

## NC(=O)c1nc(F)c[nH]c1=O [Favipiravir, reference compound]
rCHIKV P34S
  Fold resistance, rCHIKV P34S: 1.2
  EC50: 95.9 ± 12.8 µM
  Sensitivity or resistance of CHIKV nsP1-P34S to the compound: sensitive
rCHIKV G230R + K299E
  Fold resistance, rCHIKV G230R + K299E: 1.7
  EC50: 135 ± 5 µM
  Sensitivity or resistance of CHIKV nsP1-G230R+K299E to the compound: sensitive
rCHIKV S454G + W456R
  Fold resistance, rCHIKV S454G + W456R: 1.1
  EC50: 89.5 ± 0.2 µM
  Sensitivity or resistance of CHIKV nsP1-S454G+W456R to the compound: sensitive
CHIKV; [4]
  EC50: 79.8 ± 1.4 µM

## Nc1ncnc2c1ncn2C1C(F)=C(CCO)C(=O)C1O (stereo not drawn) [3′-Keto form of FHNA]
Wt SFV nsP1 [2]; wt SFV nsP1
  Inhibition of formation of the covalent [32P]m7GMP-nsP1 intermediate: only partially inhibited

## CCNc1nc(C)cc(N2CCN(C(=O)c3ccc(F)cc3)CC2)n1 [CHVB-032]
In vitro
  CC50: > 100 µM
rCHIKV P34S
  Fold resistance, rCHIKV P34S: 14.4
  EC50: 52.4 ± 0.8 µM
Wt SFV nsP1 [1]
  Inhibition of formation of the covalent [32P]m7GMP-nsP1 complex: completely blocked
rCHIKV G230R + K299E
  Fold resistance, rCHIKV G230R + K299E: 1
  EC50: 3.4 ± 0.2 µM
Wt CHIKV nsP1
  Inhibition of formation of the covalent [32P]m7GMP-nsP1 intermediate: in a dose-dependent manner
rCHIKV S454G + W456R
  Fold resistance, rCHIKV S454G + W456R: 29.4
  EC50: > 100 µM
  Sensitivity or resistance of CHIKV nsP1-S454G+W456R to the compound: completely resistant
CHIKV; [3]
  EC50: 3.4 ± 0.3 µM
CHIKV; [4]
  EC50: 3.4 ± 0.3 µM
Vero E6 cells; African green monkey
  CC50: > 100 µM

## CCC1=NC2C(N=NN2c2cccc(OC(C)C)c2)C(=O)N1 (stereo not drawn) [MADTP-372]
In vitro
  CC50: > 100 µM
rCHIKV P34S
  Fold resistance, rCHIKV P34S: 9.3
  EC50: > 25 µM
  Sensitivity or resistance of CHIKV nsP1-P34S to the compound: completely resistant
Wt SFV nsP1 [1]
  Inhibition of formation of the covalent [32P]m7GMP-nsP1 complex: less effectively
VEEV nsP1
  Inhibition of GTase activity of VEEV nsP1: inhibit the GTase activity
rCHIKV G230R + K299E
  Fold resistance, rCHIKV G230R + K299E: <1
  EC50: 1.2 ± 0.2 µM
Wt CHIKV nsP1
  Inhibition of formation of the covalent [32P]m7GMP-nsP1 intermediate: in a dose-dependent manner
rCHIKV S454G + W456R
  Fold resistance, rCHIKV S454G + W456R: 9.3
  EC50: > 25 µM
  Sensitivity or resistance of CHIKV nsP1-S454G+W456R to the compound: cross-resistant
CHIKV; [3]
  EC50: 2.7 ± 0.2 µM
CHIKV; [4]
  EC50: 2.7 ± 0.2 µM
Vero E6 cells; African green monkey
  CC50: > 100 µM

## Nc1ncnc2c1ncn2[C@@H]1O[C@H](C[C@@H](N)CC[C@H](N)C(=O)O)[C@@H](O)[C@H]1O [Sinefungin, reference compound]
In vitro
  CC50: > 1000 µM
rCHIKV P34S
  Fold resistance, rCHIKV P34S: <1
  EC50: 151 ± 2.5 µM
  Sensitivity or resistance of CHIKV nsP1-P34S to the compound: sensitive
CHIKV nsP1
  Inhibition of CHIKV nsP1: inhibits
Wt SFV nsP1 [1]; wt SFV nsP1, 50 μM sinefungin, no SAM, Fig. 3B
  Effect on GTase activity in reactions lacking SAM: appeared to stimulate GTase activity
Wt SFV nsP1 [1]
  Inhibition of formation of the covalent [32P]m7GMP-nsP1 complex: very inefficient inhibitor
VEEV nsP1
  Inhibition of VEEV nsP1: inhibits
rCHIKV G230R + K299E
  Fold resistance, rCHIKV G230R + K299E: 1.5
  EC50: 274.5 ± 0.2 µM
  Sensitivity or resistance of CHIKV nsP1-G230R+K299E to the compound: sensitive
Wt CHIKV nsP1; 1 mM compound, Fig. 3D
  Reduction of the [32P]m7GMP-nsP1 signal: reduced the signal slightly
Wt CHIKV nsP1; 125 to 500 μM compound, Fig. 3D
  Reduction of the [32P]m7GMP-nsP1 signal: did not lead to any reduction in the signal
rCHIKV S454G + W456R
  Fold resistance, rCHIKV S454G + W456R: <1
  EC50: 110 ± 3.9 µM
  Sensitivity or resistance of CHIKV nsP1-S454G+W456R to the compound: sensitive
CHIKV; [3]
  EC50: 185 ± 38.4 µM
CHIKV; [4]
  EC50: 185 ± 38.4 µM
Vero E6 cells; African green monkey
  CC50: > 1000 µM
